The target in the assay is human 11β-HSD1 (Homo sapiens, UniProt P28845). The assay can be described thus: biochemical. The conditions noted are these: for inhibition at 0.1 µM: read-out: Average % inhibition at 100 nM; for inhibition at 0.1111 µM: read-out: Average % inhibition at 111.1 nM.

A value given as a limit tells only on which side of the number the result lay.

The term IC50 denotes the concentration that gives 50% inhibition. Usually inhibition stands for the relative decrease from the control value, in per cent.

Sequence of human 11β-HSD1 (P28845 whole entry): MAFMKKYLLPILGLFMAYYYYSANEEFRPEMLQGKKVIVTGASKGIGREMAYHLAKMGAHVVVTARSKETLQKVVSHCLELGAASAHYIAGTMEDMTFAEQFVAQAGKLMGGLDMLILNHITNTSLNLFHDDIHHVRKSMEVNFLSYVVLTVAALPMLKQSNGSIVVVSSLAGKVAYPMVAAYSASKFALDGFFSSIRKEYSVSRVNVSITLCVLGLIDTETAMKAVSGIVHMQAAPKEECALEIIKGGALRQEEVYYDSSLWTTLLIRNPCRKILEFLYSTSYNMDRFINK
Experimental: All reactions were carried out at rt in 96 well clear flexible PET Microbeta plates (PerkinElmer). […] The reaction was stopped by adding 50 μl of the SPA beads suspension containing 10 μM 18β-glycyrrhetinic acid, 5 mg/ml protein A coated YSi SPA beads (GE Healthcare) and 3.3 μg/ml of anti-cortisol antibody (East Coast Biologics) in Superblock buffer (Bio-Rad). The plates were shaken for 120 minutes at rt, and the SPA signal corresponding to [^3H]cortisol was measured on a Microbeta plate reader.

`C[C@@H](c1ccc(-c2ccc(F)cc2F)cc1)N1CCC(c2ccccc2)CC1=O` (mixture of isomers) [Example 5, 1-((1S)-1-(2′,4′-difluorobiphenyl-4-yl)ethyl)-4-phenylpiperidin-2-one]: the IC50 was below 100 nM and the inhibition at 0.1 µM was 94.5%.
On to `C[C@@H](c1ccc(Br)cc1)N1CCC(c2ccc(F)cc2)OC1=O` (mixture of isomers) [Example 7, 3-((1S)-1-(4-bromophenyl)ethyl)-6-(4-fluorophenyl)-1,3-oxazinan-2-one], for which the IC50 is below 100 nM and the inhibition at 0.1 µM was 90.1%.
In the case of `O=C1O[C@@H](c2ccccc2)CCN1c1cccc2ccccc12` [Example 3, (R)-3-(naphthalen-1-yl)-6-phenyl-1,3-oxazinan-2-one], the IC50 lay in the range of 100 to 1000 nM and the inhibition at 0.1111 µM is -5.9%.
`O=C1OC(c2ccccc2Cl)CCN1c1cccc(Br)c1` (stereo not drawn) [Example 4, 3-(3-bromophenyl)-6-(2-chlorophenyl)-1,3-oxazinan-2-one]: the IC50 lay in the range of 100 to 1000 nM and the inhibition at 0.1111 µM was found to be 22.5%.
For `COc1ccc([C@H](C)N2CCC(c3ccc(F)cc3)CC2=O)cc1` (stereo partly drawn) [Example 6, 4(-4-fluorophenyl)-1-((1S)-1-(4-methoxylphenyl)ethyl)piperidin-2-one], the IC50 was below 100 nM and the inhibition at 0.1 µM stood at 89.4%.
Consider `C[C@@H](c1ccc(Br)cc1)N1CCCC(c2ccccc2)NC1=O` (stereo partly drawn) [Example 8, 1-((S)-1-(4-bromophenyl)ethyl)-4-phenyl-1,3-diazepan-2-one], for which the IC50 is below 100 nM and the inhibition at 0.1 µM worked out at 100%.

The record behind these values is patent US8598160B2, “Cycloalkyl lactame derivatives as inhibitors of 11-beta-hydroxysteroid dehydrogenase 1” (Vitae Pharmaceuticals, Inc., priority 2008, dated 2013).
